Experimental data reported in ChEMBL document CHEMBL1201862, “PubChem BioAssay data set” (2004).
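All cell lines were grown in 96-well plates and treated with compound for 48 hours. The concentration for 50% growth inhibition is given as GI50.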 Active and inactive are the calls of the source. Rule as the data show it: active = GI50 up to about 1.1 µM and inactive = higher.

Assays:
Assay in all cases: NCI-60 cell line screen, 48 h
[1] = system: 786-0
[2] = system: ACHN
[3] = system: BT-549
[4] = system: CAKI-1
[5] = system: COLO 205
[6] = system: EKVX
[7] = system: HOP-92
[8] = system: Hs-578T
[9] = system: NCI-H226
[10] = system: NCI-H23
[11] = system: NCI/ADR-RES
[12] = system: OVCAR-4
[13] = system: OVCAR-5
[14] = system: OVCAR-8
[15] = system: SF-539
[16] = system: SK-MEL-5
[17] = system: T47D
[18] = system: TK-10
[19] = system: UACC-62
[20] = system: SK-MEL-28

| Structure (SMILES) | GI50 [1] | GI50 [2] | GI50 [3] | GI50 [4] | GI50 [5] | GI50 [6] | GI50 [7] | GI50 [8] | GI50 [9] | GI50 [10] | GI50 [11] | GI50 [12] | GI50 [13] | GI50 [14] | GI50 [15] | GI50 [16] | GI50 [17] | GI50 [18] | GI50 [19] | GI50 [20] |
| --- | --- | --- | --- | --- | --- | --- | --- | --- | --- | --- | --- | --- | --- | --- | --- | --- | --- | --- | --- | --- |
| Cc1c(C#N)c2nnn(-c3ccccc3)c(=O)n2c1-c1ccccc1 | 1.67 µM (inactive) | 8.97 µM (inactive) | 5.42 µM (inactive) | 2.42 µM (inactive) | 0.49 µM (active) | 2.61 µM (inactive) | 31.3 µM (inactive) | 4.51 µM (inactive) | 2.84 µM (inactive) | 5.43 µM (inactive) | 1.12 µM (active) | > 41.5 µM (inactive) | 1.89 µM (inactive) | 7.19 µM (inactive) | 1.17 µM (inactive) | 0.471 µM (active) | 4.18 µM (inactive) | > 59.6 µM (inactive) | 4.79 µM (inactive) |  |
| CC(C)CCCC(C)[C@H]1CC[C@H]2NCCCC[C@]12C (stereo partly specified) | 3.78 µM (inactive) | 2.07 µM (inactive) | 9.38 µM (inactive) | 7.05 µM (inactive) | 1.73 µM (inactive) | 2.28 µM (inactive) | 3.48 µM (inactive) | 6.82 µM (inactive) | 9.14 µM (inactive) | 8.69 µM (inactive) | 6.71 µM (inactive) | 6.58 µM (inactive) | 2.53 µM (inactive) | 3.03 µM (inactive) | 5.92 µM (inactive) | 1.6 µM (inactive) | 2.77 µM (inactive) | 4.28 µM (inactive) | 2.01 µM (inactive) | 2.37 µM (inactive) |
| CCOC(=O)CC/C(=N/Nc1ccc(Cl)cc1[N+](=O)[O-])C(=O)OCC | > 100 µM (inactive) | > 100 µM (inactive) | > 100 µM (inactive) |  | > 100 µM (inactive) | > 100 µM (inactive) | 11.4 µM (inactive) | > 100 µM (inactive) | > 100 µM (inactive) | > 100 µM (inactive) | > 100 µM (inactive) | > 100 µM (inactive) | > 100 µM (inactive) | > 100 µM (inactive) | > 100 µM (inactive) | > 100 µM (inactive) | 93.3 µM (inactive) | > 100 µM (inactive) | > 100 µM (inactive) | > 100 µM (inactive) |
| COc1cc(OC)c2c(=O)cc(-c3ccccc3F)[nH]c2c1 | 47.9 µM (inactive) | > 100 µM (inactive) | > 100 µM (inactive) | 61.5 µM (inactive) | 75.9 µM (inactive) | 86.5 µM (inactive) | > 100 µM (inactive) | > 100 µM (inactive) | 23.7 µM (inactive) | 32.9 µM (inactive) | 35.3 µM (inactive) | 14.2 µM (inactive) | 73.3 µM (inactive) | 51.4 µM (inactive) |  | 30.3 µM (inactive) | 95.1 µM (inactive) | 39.9 µM (inactive) | 52.8 µM (inactive) | > 100 µM (inactive) |
| COC(=O)C(CCSC)NC(=O)CNC(=O)CSc1nnc(COc2ccc(Cl)cc2)n1-c1ccccc1 (stereo unspecified) | 16 µM (inactive) | 17 µM (inactive) | 16.9 µM (inactive) |  | 18.2 µM (inactive) |  | 17.6 µM (inactive) | 22.3 µM (inactive) | 18.8 µM (inactive) | 16.6 µM (inactive) | 82.2 µM (inactive) | 19.3 µM (inactive) | 19 µM (inactive) |  | 18.7 µM (inactive) | 17.3 µM (inactive) | 18.4 µM (inactive) | 17.6 µM (inactive) | 16.7 µM (inactive) | 17.5 µM (inactive) |
| c1ccc(C2OCC(OC3CCCCO3)CO2)cc1 (stereo unspecified) | > 100 µM (inactive) | > 100 µM (inactive) | > 100 µM (inactive) | > 100 µM (inactive) | > 100 µM (inactive) | > 100 µM (inactive) | > 100 µM (inactive) | 2.36 µM (inactive) | > 100 µM (inactive) | > 100 µM (inactive) | > 100 µM (inactive) | > 100 µM (inactive) | > 100 µM (inactive) | > 100 µM (inactive) | > 100 µM (inactive) | > 100 µM (inactive) | > 100 µM (inactive) | > 100 µM (inactive) | > 100 µM (inactive) | > 100 µM (inactive) |
| COc1cc2c(c(O)c1OC)C(=O)C1CCC(=O)N1C2c1cccc2ccccc12 (stereo unspecified) | > 100 µM (inactive) | 28.9 µM (inactive) | 45 µM (inactive) | 85.1 µM (inactive) | 15.4 µM (inactive) | 37.5 µM (inactive) | 19.3 µM (inactive) | 82.6 µM (inactive) | > 100 µM (inactive) | 89.7 µM (inactive) | 41.2 µM (inactive) | 47.4 µM (inactive) | 94.4 µM (inactive) | 49.1 µM (inactive) | 41.5 µM (inactive) | 31.6 µM (inactive) | 36.6 µM (inactive) |  | 58.5 µM (inactive) | 73.6 µM (inactive) |
| CC(=O)NC(=N/N=C1/C(=O)Nc2ccc(C)cc21)NC(C)=O | > 100 µM (inactive) | > 100 µM (inactive) | > 100 µM (inactive) | > 100 µM (inactive) | > 100 µM (inactive) | > 100 µM (inactive) | > 100 µM (inactive) | > 100 µM (inactive) | 98.2 µM (inactive) | > 100 µM (inactive) | > 100 µM (inactive) | > 100 µM (inactive) | > 100 µM (inactive) | > 100 µM (inactive) |  | > 100 µM (inactive) | > 100 µM (inactive) | > 100 µM (inactive) | > 100 µM (inactive) | > 100 µM (inactive) |
| N#CC1=C(S)N(C2OC(CO)C(O)C(O)C2O)C(c2ccccc2)=CC1c1ccccc1 (stereo unspecified) | 37.9 µM (inactive) | 62.1 µM (inactive) | 55.2 µM (inactive) | > 100 µM (inactive) | 44.2 µM (inactive) |  | 31.8 µM (inactive) | 41.5 µM (inactive) | 36.2 µM (inactive) | > 100 µM (inactive) | > 100 µM (inactive) | 75.9 µM (inactive) | > 100 µM (inactive) | 45.3 µM (inactive) | 24.7 µM (inactive) | 19.8 µM (inactive) | 18.2 µM (inactive) | > 100 µM (inactive) | 21.7 µM (inactive) | 45 µM (inactive) |
| CN(C)c1ccc(-c2nc(-c3cc4c(ccc5ccccc54)oc3=O)cs2)cc1 | > 100 µM (inactive) | > 100 µM (inactive) | > 100 µM (inactive) | > 100 µM (inactive) | > 100 µM (inactive) | > 100 µM (inactive) | > 100 µM (inactive) | > 100 µM (inactive) | > 100 µM (inactive) |  | > 100 µM (inactive) | > 100 µM (inactive) | > 100 µM (inactive) | > 100 µM (inactive) | > 100 µM (inactive) | > 100 µM (inactive) | > 100 µM (inactive) | > 100 µM (inactive) | > 100 µM (inactive) | > 100 µM (inactive) |
| COC(=O)[C@H](Cc1c[nH]c2ccccc12)NC(=O)c1ccc(CNC(=O)/C=C/c2cccc(Oc3ccccc3)c2)cc1 | > 100 µM (inactive) | > 100 µM (inactive) | 39.9 µM (inactive) | > 100 µM (inactive) | > 100 µM (inactive) | > 100 µM (inactive) | 20.2 µM (inactive) | 34.7 µM (inactive) | > 100 µM (inactive) | 52.6 µM (inactive) | > 100 µM (inactive) | 19.5 µM (inactive) | > 100 µM (inactive) | > 100 µM (inactive) |  | 30.3 µM (inactive) | > 100 µM (inactive) | > 100 µM (inactive) | 36.1 µM (inactive) | 29.2 µM (inactive) |
| CCN(CC)CCO/N=C1/C=C2CCC3C(CC[C@@]4(C)C3CC[C@]4(C)O)[C@@]2(C)CC1 (stereo partly specified) | 3.69 µM (inactive) | 5.87 µM (inactive) | 11.7 µM (inactive) | 4.52 µM (inactive) | 4.16 µM (inactive) | 6.21 µM (inactive) | 4.9 µM (inactive) | 5.12 µM (inactive) | 2.49 µM (inactive) | 6.75 µM (inactive) | 1.96 µM (inactive) | 17.5 µM (inactive) | 16.5 µM (inactive) | 5.21 µM (inactive) | 3.18 µM (inactive) | 12.5 µM (inactive) | 7.59 µM (inactive) | 15.2 µM (inactive) | 2.76 µM (inactive) |  |
| COC(=O)c1c(OC(C)=O)ccc2c1c1cc3ccccc3c(OC(C)=O)c1n2C | 11 µM (inactive) | 8.09 µM (inactive) | 14.6 µM (inactive) | 11.8 µM (inactive) | 21.8 µM (inactive) | 41.3 µM (inactive) | 10.3 µM (inactive) | 4.43 µM (inactive) | 37.2 µM (inactive) | 17.7 µM (inactive) | 34.8 µM (inactive) | 19.7 µM (inactive) | 53.5 µM (inactive) | 14.2 µM (inactive) | 17.5 µM (inactive) | 3.07 µM (inactive) | 4.69 µM (inactive) | 28.6 µM (inactive) | 30.8 µM (inactive) | 84.5 µM (inactive) |
| COc1cc(-c2c3c(cc4c2OCO4)[C@@H](Nc2ccc4c(c2)Cc2cc(N[C@@H]5c6cc7c(cc6C(c6cc(OC)c(O)c(OC)c6)[C@H]6C(=O)OC[C@H]56)OCO7)ccc2-4)[C@H]2COC(=O)[C@@H]2C3)cc(OC)c1O (stereo partly specified) | 18.5 µM (inactive) | 47.8 µM (inactive) | 35.1 µM (inactive) | 23.4 µM (inactive) | 15.3 µM (inactive) | 74.6 µM (inactive) | 10.2 µM (inactive) | > 100 µM (inactive) | 43.5 µM (inactive) | 76.4 µM (inactive) | 15.2 µM (inactive) |  | 27.8 µM (inactive) | 40.6 µM (inactive) | 0.977 µM (active) | 18.5 µM (inactive) | 98.2 µM (inactive) | 31 µM (inactive) |  | 15.5 µM (inactive) |
